Patent US20200246284A1 (Academia Sinica, priority 2015, published 2020)
Where “and” joins values, the source holds several entries; their conditions need not be identical. Equal entries are not always repeated. Where two headings read alike, the source gives them in different places.

Columns and labels:
[1] = tested on: 16HBE SV40+ bronchial epithelium; type: cell-based, human
[2] = tested on: BEAS2B SV40 bronchial epithelium; type: cell-based, human
BMMSC BM mesenchyme = test: Cytotoxicity normal tissue 72 hr; type: cell-based, human
HS27 adult BM stroma = type: cell-based, human
[3] = tested on: MRC5 fetal lung fibroblast; type: cell-based, human
[4] = tested on: IMR90 fetal lung myofibroblast; test: Cytotoxicity normal tissue 72 hr; type: cell-based, human
[5] = tested on: Cord Blood CFC (CFU-GM, BFU-E, CFU-C); type: cell-based, human
CALU-1 = type: cell-based, human
CALU-3 = type: cell-based, human
CALU-6 = type: cell-based, human
H1395 = type: cell-based, human
H1650 = type: cell-based, human
H1666 = type: cell-based, human
H1755 = type: cell-based, human
H1781 = type: cell-based, human
H1975 = type: cell-based, human
H2228 = type: cell-based, human
H3122 = type: cell-based, human
H3255 = type: cell-based, human
H525 = type: cell-based, human
HCC364 = type: cell-based, human
HCC827 = type: cell-based, human
PC9 = type: cell-based, human
SK-LU-1 = type: cell-based, human
H1373 = type: cell-based, human
H596 = type: cell-based, human
H647 = type: cell-based, human
A549 = type: cell-based, human
EBC1 = type: cell-based, human
H1703 = type: cell-based, human
H520 = type: cell-based, human
HCC15 = type: cell-based, human
HCC2450 = type: cell-based, human
PC1 (jap) = type: cell-based, human
SK-MES-1 = type: cell-based, human
[6] = tested on: normal human, murine or primate cell and tissue types; test: Cytotoxicity, panel of normal tissues (MTT, alamar blue); type: cell-based
[7] = tested on: nude mice bearing prostate 22Rv/HL2 tumor xenografts; conditions: mouse, in vivo
[8] = tested on: nude mice bearing prostate 22Rv/HL2; conditions: mouse, in vivo; as to BASO: test concentration or dose not given here; as to EOS: test concentration or dose not given here; as to LYM: test concentration or dose not given here; as to MONO: test concentration or dose not given here; as to NEU: test concentration or dose not given here; as to PLT: test concentration or dose not given here
[9] = tested on: nude mice bearing prostate 22Rv/HL2; conditions: mouse, in vivo; remark: listed apart in the source; as to BASO: test concentration or dose not given here; as to EOS: test concentration or dose not given here; as to LYM: test concentration or dose not given here; as to MONO: test concentration or dose not given here; as to NEU: test concentration or dose not given here; as to PLT: test concentration or dose not given here
DLBCL (GBC) cell lines = test: Combination of BO-1055 with PUH71, TT46, bortezomib, doxorubicin (Table 25); type: cell-based; conditions: Homo sapiens, read-out: IC50 single agent
Z-138 [10] = test: Combination with BO-1055, MCL (Tables 28, 29); type: cell-based, human; conditions: Z-138; combo-1 BO-1055 variable, combo-2 partner variable
Granta = test: Combination with BO-1055, MCL (Tables 28, 29); type: cell-based, human; conditions: Granta; combo-1 BO-1055 variable, combo-2 partner variable
REC-1 = test: Combination with BO-1055, MCL (Tables 28, 29); type: cell-based, human; conditions: REC-1; combo-1 BO-1055 variable, combo-2 partner variable
Mino [11] = test: Combination with BO-1055, MCL (Tables 28, 29); type: cell-based, human; conditions: Mino; combo-1 BO-1055 variable, combo-2 partner variable
NECB1 = test: Combination with BO-1055, MCL (Tables 28, 29); type: cell-based, human; conditions: NECB1; combo-1 BO-1055 variable, combo-2 partner variable
LY1 = test: Cytotoxicity DLBCL; conditions: read-out: cytotoxicity IC50; LY1, DLBCL GCB
Description: (§1) After 72 hours, the cultures were pulsed with Alamar Blue overnight, and the fluorescent intensity of resulted cultures was measured by a Synergy H1 plate-reader (BioTek Inc).

Ly3 (OCI-LY3) = test: Cytotoxicity DLBCL; conditions: read-out: cytotoxicity IC50; LY3, DLBCL ABC
Description: as §1

Ly8 = test: Cytotoxicity DLBCL; conditions: read-out: cytotoxicity IC50; LY8, DLBCL GCB
Description: as §1

Ly18 = test: Cytotoxicity DLBCL; conditions: read-out: cytotoxicity IC50; LY18, DLBCL GCB
Description: as §1

SUDHL-4 = test: Cytotoxicity DLBCL; conditions: read-out: cytotoxicity IC50; SUDHL-4, DLBCL GCB
Description: as §1

SUDHL-6 = test: Cytotoxicity DLBCL; conditions: read-out: cytotoxicity IC50; SUDHL-6, DLBCL GCB
Description: as §1

Toledo = test: Cytotoxicity DLBCL; conditions: read-out: cytotoxicity IC50, DLBCL GCB
Description: as §1

Karpas-422 = test: Cytotoxicity DLBCL; conditions: read-out: cytotoxicity IC50; Karpas-422, DLBCL GCB
Description: as §1

HBL1 = test: Cytotoxicity DLBCL; conditions: read-out: cytotoxicity IC50; HBL1, DLBCL ABC
Description: as §1

U2932 = test: Cytotoxicity DLBCL; conditions: read-out: cytotoxicity IC50; U2932, DLBCL ABC
Description: as §1

SUDHL-5 = test: Cytotoxicity DLBCL; conditions: read-out: cytotoxicity IC50; SUDHL-5, DLBCL GCB
JEKO-1 = test: Cytotoxicity mantle cell lymphoma
Description: as §1

Z-138 [12] = test: Cytotoxicity mantle cell lymphoma; conditions: read-out: cytotoxicity IC50; Z-138, mantle cell lymphoma
Description: as §1

Mino [13] = test: Cytotoxicity mantle cell lymphoma; conditions: read-out: cytotoxicity IC50; Mino, mantle cell lymphoma
Description: as §1

Granta-519 = test: Cytotoxicity mantle cell lymphoma; conditions: read-out: cytotoxicity IC50; Granta-519, mantle cell lymphoma
Description: as §1

NECB-1 = test: Cytotoxicity mantle cell lymphoma; conditions: read-out: cytotoxicity IC50; NECB-1, mantle cell lymphoma
Description: as §1

[14] = tested on: spontaneous murine B-cell lymphoma; test: Cytotoxicity, with or without MS5 stromal cells; conditions: read-out: cytotoxicity IC50; murine BCL, spontaneous NSG CD19+, no stromal support

`N.N.O=C([O-])C1(C(=O)[O-])CCC1.[Pt+2]` [Carboplatin] gave an IC50 [1] of 35.5 µM, an IC50 [2] of 120 µM and an IC50 (BMMSC BM mesenchyme) of 32.8 µM. It also gave an IC50 (HS27 adult BM stroma) of 35.3 µM, an IC50 [3] of 210 µM and an IC50 [4] of 1000 µM. It also gave an IC50 [5] of 1.7 µM, an IC50 (CALU-1) of 96.2 µM and an IC50 (CALU-3) of 84.5 µM. The IC50 (CALU-6) was 14.7 µM, the IC50 (H1395) was 17.4 µM and the IC50 (H1650) was 69.7 µM. It also gave an IC50 (H1666) of 90.7 µM, an IC50 (H1755) of 41.4 µM and an IC50 (H1781) of 3.99 µM. For the same molecule, the IC50 (H1975) was 60.2 µM, the IC50 (H2228) was 8.62 µM and the IC50 (H3122) was 109 µM. It also gave an IC50 (H3255) of 24.3 µM, an IC50 (H525) of 72.7 µM and an IC50 (HCC364) of 172 µM. It also gave an IC50 (HCC827) of 138 µM, an IC50 (PC9) of 32.1 µM and an IC50 (SK-LU-1) of 42.4 µM. For the same molecule, the IC50 (H1373) was 29.3 µM, the IC50 (H596) was 34.1 µM and the IC50 (H647) was 25.5 µM. For the same molecule, the IC50 (A549) was 41.3 µM, the IC50 (EBC1) was 168 µM and the IC50 (H1703) was ≥ 80 µM. The IC50 (H520) was 75.6 µM, the IC50 (HCC15) was 173 µM and the IC50 (HCC2450) was 34.5 µM. The IC50 (PC1 (jap)) was 57.4 µM, the IC50 (SK-MES-1) was 160 µM and the IC50 [6] was ≥ 32.8 µM. For the same molecule, the “pathological change in heart, liver, spleen, lung and kidney” value [7] was “no apparent pathological change”, the ALT [8] was 64.85 U/L and the AST [8] was 119.15 U/L. The BUN [8] was 21.17 mg/dL, the CREA [8] was 0.31 mg/dL and the UA [8] was 1.97 mg/dL. For the same molecule, the BASO [9] was 0.03 10^3/μL, the EOS [9] was 0.13 10^3/μL and the LYM [9] was 0.60 10^3/μL. For the same molecule, the MONO [9] was 0.07 10^3/μL, the NEU [9] was 1.13 10^3/μL and the PLT [9] was 369 10^3/μL. The RBC [9] was 9.37 10^6/μL and the WBC [9] was 1.97 10^3/μL.

For `CC(C)NCCCn1c(Sc2cc3c(cc2I)OCO3)nc2c(N)ncnc21` [PUH71], the IC50 (DLBCL (GBC) cell lines; Farage) was 0.785 µM, the IC50 (DLBCL (GBC) cell lines; KARPAS-422, KARPAS-422) was 1.52 µM and the IC50 (DLBCL (GBC) cell lines; OCI-LY19, OCI-LY19) was 0.221 µM. For the same molecule, the IC50 (DLBCL (GBC) cell lines; OCI-Ly8, OCI-LY8) was 0.814 µM, the IC50 (DLBCL (GBC) cell lines; OCI-Ly18, OCI-LY18) was 0.274 µM and the IC50 (DLBCL (GBC) cell lines; OCY-LY1) was 0.208 µM. It also gave an IC50 (DLBCL (GBC) cell lines; OCY-LY7) of 0.391 µM, an IC50 (DLBCL (GBC) cell lines; PFEIFER) of 0.335 µM and an IC50 (DLBCL (GBC) cell lines; SU-DHL-4, SUDHL4) of 0.379 µM. For the same molecule, the IC50 (DLBCL (GBC) cell lines; SU-DHL-5, SUDHL5) was 0.336 µM, the IC50 (DLBCL (GBC) cell lines; SU-DHL-6, SUDHL6) was 0.672 µM and the IC50 (DLBCL (GBC) cell lines; Toledo) was 10.9 µM. For the same molecule, the “interaction with BO-1055” value (Z-138 [10]) was “synergistic with BO-1055 in both combinations”, the “interaction with BO-1055” value (Granta) was “dually antagonistic” and the “interaction with BO-1055” value (REC-1) was “antagonistic against REC-1 in both combinations”. The “interaction with BO-1055” value (Mino [11]) was “dually synergistic”, the “interaction with BO-1055” value (NECB1) was “synergistic with BO-1055 against NECB1 in combo-1 and antagonistic in combo-2” and the IC50 (LY1) was 0.26 µM and 0.308 µM. For the same molecule, the IC50 (Ly3 (OCI-LY3)) was 2.78 µM, the IC50 (Ly8) was 0.81 µM and the IC50 (Ly18) was 0.27 µM. It also gave an IC50 (SUDHL-4) of 0.2 µM, an IC50 (SUDHL-6) of 0.05 µM and an IC50 (Toledo) of 2.66 µM. The IC50 (Karpas-422) was 0.45 µM, the IC50 (HBL1) was 1.67 µM and the IC50 (U2932) was 0.49 µM. The IC50 (SUDHL-5) was 0.41 µM, the IC50 (JEKO-1; JEKO-1, 72 hr (Table 27)) was 0.31 µM and the IC50 (JEKO-1; read-out: cytotoxicity IC50, JEKO-1, mantle cell lymphoma) was 0.26 µM. It also gave an IC50 (Z-138 [12]) of 0.06 µM, an IC50 (Mino [13]) of 0.26 µM and an IC50 (Granta-519) of 1.22 µM. The IC50 (NECB-1) was 1.66 µM and the IC50 [14] was 0.24 µM.
